Laboratory results taken from patent US11219580B2, “Oral composition” (Andalay Technologies Limited, priority 2016, dated 2022).
Read-outs that look alike come from different tables or passages of the source.

Tests used:
[1] = Dissolution Test 2: release of active ingredients from sports-gel style mouthwash (protocol 1B) under simulated mastication, QTOF-UHPLC; type: physicochemical; conditions: for release profile from sports-gel style mouthwash: 10 g mouthwash of protocol 1B in 100 mL stirred water at 37° C., samples 10-600 s, FIGS. 7-11; for relative release profile, order of release: protocol 1B mouthwash, peak-normalised plots, FIG. 12
Protocol: A sports-gel style mouthwash was prepared according to protocol 1B described above. In order to measure the release of the active ingredients from the mouthwash, it was necessary to recreate the mastication conditions of the mouth. The following protocol was employed for this purpose: • i. Whilst stirring with a 3.5 cm magnetic stirrer set at the “7” rotation setting, heat 100 mL of water to 37° C. in a beaker. • ii. Aspirate 1 mL of solution using a pipette to obtain a standard sample. • iii. Add 10 g of the sports-gel style mouthwash prepared according to protocol 1B to the heated water. • Aspirate 1 mL of the resultant solution at time intervals of t=10, 20, 40, 60, 90, 120, 150, 180, 210, 240, 270, 300, 360 and 600 seconds, ensuring that the samples are taken from the outermost rim of the beaker.
Prior to mass spectrometry analysis, the samples and standards obtained were diluted 1 part in 10 in acetonitrile (ACN). All concentrations given below for the calibration are of these diluted solutions.
All samples and calibration standards were injected in the following order: triplicate injections of full calibration standards from low to high concentration, triplicate injection of acetonitrile blank, triplicate injection of sample series B in timeline sequence (each with a single blank in between), single injection of full calibration standards from low to high concentration, triplicate injection of blank acetonitrile, triplicate injection of sample series B in timeline sequence (each with a single blank in between). The reason for the second, shorter, series of calibration standards was to determine if there was any significant decrease in sensitivity (indicated by decrease in peak area) during the batch.
The QTOF-UHPLC analysis was conducted using a MaXis HD quadrupole electrospray time-of-flight (ESI-QTOF) mass spectrometer (Bruker Daltonik GmbH, Bremen, Germany) operated in ESI positive-ion MS mode. The QTOF was coupled to an Ultimate 3000 UHPLC (Thermo Fisher Scientific, California, USA). The capillary voltage was set to 4500 V, nebulising gas at 2 bar, drying gas at 10 L/min at 200° C. The TOF scan range was from 50-750 mass-to-charge ratio (m/z). For effective transmission of ions the ion energy was set to 1.0 eV with the collision energy for TOF MS acquisition at 2.0 eV. Liquid chromatography was performed using a Kinetex […], 2.1×100 mm HILIC column (Phenomenex) with a flow rate of 0.4 mL/min at 30° C. and an injection volume of 10 μL. Mobile phases A and B consisted of 50:50 ACN:H2O with 0.2% v/v formic acid and 10 mM ammonium formate, and 95:5 ACN:H2O with 0.2% v/v formic acid and 10 mM ammonium formate, respectively. Gradient elution was carried out with 100% mobile phase B until 2 min followed by a linear gradient to 0% B at 12 mins, keeping 0% B up until 15 mins, thereafter returned to 100% B until in 20 mins total run time. The MS instrument was calibrated using a range of sodium formate clusters introduced by 10 μL loop-injection prior to the chromatographic run. The mass calibrant solution consisted of 3 parts of 1 M NaOH to 97 parts of 50:50 water:isopropanol with 0.2% formic acid. The observed mass and isotope pattern perfectly matched the corresponding theoretical values as calculated from the expected elemental formula. Most of the target compounds were detected as [M+H]^+ and [M+Na]^+ ions. Data processing was performed using the Data Analysis software version 4.3 (Bruker Daltonik GmbH, Bremen, Germany). Quantification was carried out using the peak area in the extracted ion chromatogram (EIC) of the sum of the protonated and sodiated ion of the target compound.
Using the mass spectrometry data obtained, it is possible evaluate the release profiles of the active ingredients present in the sports-gel style mouthwash under simulated mastication conditions.

rat = conditions: cited from earlier work

Molecule	release profile from sports-gel style mouthwash [1]	relative release profile, order of release [1]	LD50 rat (rat; in vivo)	LD50 rat (rat)
CC12CCC(CC1)C(C)(C)O2 [Eucalyptol]	reaches its maximum concentration significantly later than, for example, the glycerol or sorbitan monolaurate	follow the release of the surfactant		
OCC(O)CO [Glycerine, glycerol]	immediately releases into the surrounding solution and reaches its effective concentration within seconds	released immediately upon commencing mastication	12,600 mg/kg	
CC1CCC(C(C)C)C(O)C1 (centres unmarked) [Menthol]			3,300 mg/kg	
O=[N+]([O-])[O-].[K+] [Potassium nitrate]				3,750 mg/kg
Cc1ccc(C(C)C)c(O)c1 [Thymol]	reaches its maximum concentration at a later stage of mastication			
O [Water]				90,000 mg/kg
OC[C@@H](O)[C@H](O)[C@@H](O)CO [Xylitol]	released quickly	follow the release of the surfactant	16,500 mg/kg	
Sorbitan monolaurate	fast release	the next active ingredient to reach an effective concentration		
